Experimental data: US10709159B2, “Increasing the bioavailability of flavan-3-ols with carbohydrates with a low glycemic index” (NESTEC S.A., priority 2012, dated 2020)

System: Caco-2 human epithelial colorectal adenocarcinoma cells
Assay: In vitro Caco-2 cell model, transport of (−)-epicatechin
Assay type: in vitro ADME
Conditions: for concentration of (−)-epicatechin in the basal compartment in comparison to sucrose: 250 μM (−)-epicatechin plus carbohydrate 100 mg/ml on the apical side, 2 h incubation; for concentration of (−)-epicatechin in the basal compartment when in combination with carbohydrate: (−)-epicatechin in combination with selected low glycemic index carbohydrates
Experimental: Caco-2 human epithelial colorectal adenocarcinoma cells were used to investigate the transport of (−)-epicatechin in vitro. Cells were grown in high glucose DMEM supplemented with 20% heat inactivated fetal bovine serum, non-essential amino acids and 2 mM L-glutamine, amphotericin B (1 μg/ml), penicillin (100 U/ml), and streptomycin (100 μg/ml) and maintained at 37° C. and 5% CO2. The medium was replaced every 2 days and the cells were reseeded every 7 days. Then, cells were seeded in 12-well transwell inserts at a density of 20,000 cells per cm^2 and the medium on both sides was replaced every 2 days. After 21 days, cells were already differentiated. On the experiment day, medium was removed and replaced by HBSS supplemented with 25 mM glucose, 10 mM HEPES and 1.8 mM CaCl2. […] Then, (−)-epicatechin (250 μM) alone or plus carbohydrates (5 to 100 mg/ml) were placed in the apical side of the cell monolayers and incubated for 2 h. All compounds were added to the exposure medium from stock solutions in DMSO. The concentration of DMSO at the apical side was kept at 0.05% in each experiment. (−)-Epicatechin was detected in the cell culture media using ultra-performance liquid chromatography using an Acquity UPLC HSS C18 2.1×100 mm, 1.8 μm column (Waters, Switzerland) equipped with HSS C18 VanGuard pre-column (Waters, Switzerland).

SMILES	concentration of (−)-epicatechin in the basal compartment in comparison to sucrose	concentration of (−)-epicatechin in the basal compartment when in combination with carbohydrate
OC[C@@H](O)[C@@H](O)[C@H](O)[C@@H](O)CO [sorbitol, D-sorbitol]	significant higher concentration of (−)-epicatechin in the basal compartment	significant increase in the concentration of (−)-epicatechin in the basal compartment
O=C[C@H](O)[C@@H](O)[C@@H](O)[C@H](O)CO [galactose]	significant higher concentration of (−)-epicatechin in the basal compartment	significant increase in the concentration of (−)-epicatechin in the basal compartment
OC[C@@H](O)[C@H](O)[C@@H](O)CO [xylitol]	significant higher concentration of (−)-epicatechin in the basal compartment	significant increase in the concentration of (−)-epicatechin in the basal compartment
